Values quoted from earlier work, collected in patent US11389520B2, “Modified tetra-acylated neisserial LPS” (priority 2016, dated 2022).

Biological target: human TLR4/MD-2 complex (Homo sapiens, UniProt O00206+Q9Y6Y9)
Sequence (O00206 24-839): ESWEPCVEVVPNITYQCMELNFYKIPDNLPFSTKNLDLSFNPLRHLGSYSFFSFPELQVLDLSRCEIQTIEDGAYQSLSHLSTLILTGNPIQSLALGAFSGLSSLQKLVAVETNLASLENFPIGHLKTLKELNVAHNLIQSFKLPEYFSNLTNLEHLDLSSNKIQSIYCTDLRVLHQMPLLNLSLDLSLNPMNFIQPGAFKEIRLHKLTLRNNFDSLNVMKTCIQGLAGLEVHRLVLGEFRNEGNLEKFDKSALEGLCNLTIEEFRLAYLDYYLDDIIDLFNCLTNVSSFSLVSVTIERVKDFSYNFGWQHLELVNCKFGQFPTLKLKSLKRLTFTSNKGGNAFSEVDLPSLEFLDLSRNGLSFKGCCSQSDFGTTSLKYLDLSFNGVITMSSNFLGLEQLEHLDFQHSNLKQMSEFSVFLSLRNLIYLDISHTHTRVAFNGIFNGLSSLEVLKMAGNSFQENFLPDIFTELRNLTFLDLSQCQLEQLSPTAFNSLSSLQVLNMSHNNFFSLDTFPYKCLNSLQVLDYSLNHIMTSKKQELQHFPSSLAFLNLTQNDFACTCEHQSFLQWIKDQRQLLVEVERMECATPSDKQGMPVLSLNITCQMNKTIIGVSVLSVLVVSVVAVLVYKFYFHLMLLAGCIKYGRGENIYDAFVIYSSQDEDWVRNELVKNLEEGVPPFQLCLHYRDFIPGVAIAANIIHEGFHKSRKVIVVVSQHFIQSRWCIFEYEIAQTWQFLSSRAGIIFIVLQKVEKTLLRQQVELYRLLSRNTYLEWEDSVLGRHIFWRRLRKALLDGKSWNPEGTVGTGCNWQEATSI
Sequence (Q9Y6Y9 17-160 limits assumed): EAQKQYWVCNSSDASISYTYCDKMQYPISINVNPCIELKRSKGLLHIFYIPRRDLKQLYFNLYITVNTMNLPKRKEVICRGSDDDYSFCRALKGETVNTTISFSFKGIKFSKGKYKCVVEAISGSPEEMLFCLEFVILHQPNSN

Structure (SMILES): CCCCCCCCCCC[C@@H](O)CC(=O)N[C@H]1[C@H](OC[C@H]2O[C@H](OP(=O)(O)O)[C@H](NC(=O)C[C@H](O)CCCCCCCCCCC)[C@@H](OC(=O)C[C@H](O)CCCCCCCCCCC)[C@@H]2O)O[C@H](CO)[C@@H](OP(=O)(O)O)[C@@H]1OC(=O)C[C@H](O)CCCCCCCCCCC [lipid IVa]
- Action on the human TLR4/MD-2 complex: antagonist
